The values that follow come from patent US4304781A, “Treatment of ulcers and hypertension” (John Wyeth & Brother Limited, priority 1978, dated 1981).

Holding throughout (format): in vivo
Test [1] deals with male spontaneously hypertensive rats. In words: Antihypertensive activity, Procedure A: systolic pressure of spontaneously hypertensive rats. The procedure: Systolic pressure of male spontaneously hypertensive rats is measured by an indirect technique using the Decker Caudal Plethysmograph or other appropriate sensor. Groups usually consist of 4 rats. Drugs are usually administered orally. Pressures are usually read prior to drug administration and at 1.5, 4 and 24 hours thereafter. This schedule may be altered depending upon the behaviour of the drug.

In test [2] the test system is hypersecretion. The test is described as follows: Anti-secretory activity test (Shay et al). The arrangement: key to Anti-secretory, % change in Vol.: NS: Not Significant. Particulars: for Anti-secretory, % change in Vol. / change in vivo at 30 mg/kg: 30 mg/kg; for change in vivo at 10 mg/kg / change in vivo at 30 mg/kg: read-out: Anti-secretory, % change in Vol. How it is done:
(§1) Anti-ulcer activity was determined by the stress-induced erosion test of Senay & Levine, Proc. Soc. Exp. Biol. Med., 124, 1221-1223 (1967) and anti-secretory activity by the test of H. Shay, D. Sun and H. Greenstin, Gastroenterology, 1954, 26, 903-913 as exemplified by Beattie et al J. Med. Chem., 20, 714 (1977). […] However, some compounds show activity in tests for anti-hypertensive activity.

Test [3] has as its system stress-induced erosion. The test is described as follows: Stress-induced erosion test (Senay & Levine), anti-ulcer activity. The procedure: as §1
Test [4] relates to Female rats rendered hypertensive. In words: Antihypertensive activity, Procedure B: deoxycorticosterone acetate hypertensive rats (unilateral nephrectomy). Particulars: 50 mg/kg orally. How it is done: Female rats are rendered hypertensive by unilateral nephrectomy and the s.c. implantation of a pellet containing 30 mg of deoxycorticosterone acetate. The drinking water is replaced by normal saline ad lib for the first four weeks following preparation. Blood pressures stabilise at a hypertensive level after 6 weeks. Systolic pressure is measured indirectly before dosing with a test compound using an E and M pneumatic pulse transducer and a Devices MX2 recorder. Groups of 4 rats are dosed orally with suspensions or solutions of the test compound in 0.5% hydroxypropyl-methyl-cellulose 0.9% saline vehicle. Blood pressures are recorded again at 2, 6 and 24 hours and the results, expressed as a percentage of the pre-dose values compared with those of a similar group of rats receiving vehicle alone.

For orientation: inhibition in vivo means how much of the control response was suppressed. In the case of `C[n+]1ccccc1SCC(=O)c1ccccc1` [Example 15, 1-Methyl-2-phenacylthiopyridinium bromide], the “Antihypertensive activity (Procedure A)” value in test [1] (75 mg/kg orally) is on record as “showed activity”. In addition, in test [2], the “Anti-secretory, % change in Vol.” value is given as “NS”. In addition, 100 mg/kg produced 100% inhibition in vivo in test [3].

For `C[n+]1ccccc1SCCc1ccccc1` [Example 2, 1-Methyl-2-(2-phenylethylthio) pyridinium bromide], the “Antihypertensive activity (Procedure A)” value in test [1] (75 mg/kg orally) was “showed activity”. Also, in test [2], the change in vivo at 10 mg/kg was -20% and the change in vivo at 30 mg/kg is -56%. In addition, in test [3], the inhibition in vivo at 30 mg/kg is 83% and the inhibition in vivo at 100 mg/kg was determined as 67%.

On to `C[n+]1ccccc1SC(c1ccccc1)c1ccccc1` [Example 39, 2-((Diphenylmethyl)thio)-1-methyloyridinium bromide], for which the “Antihypertensive activity (Procedure A)” value in test [1] (50 mg/kg orally) is listed as “showed activity”. For the same molecule, the “Anti-secretory, % change in Vol.” value in test [2] is “NS”.

As to `C[n+]1ccccc1SCc1cccc(Br)c1` [Example 17, 2-(3-Bromobenzylthio)-1-methylpyridinium bromide], the “Antihypertensive activity (Procedure A)” value in test [1] (50 mg/kg orally) was “inactive”. Moreover, the change in vivo at 30 mg/kg in test [2] is -52%. Further, the inhibition in vivo at 100 mg/kg in test [3] was determined as 64%.

For the molecule `C[n+]1ccccc1SCC1CCCCC1` [Example 12, 2-(Cyclohexylmethylthio)-1-methylpyridinium bromide], in test [2], the “Anti-secretory, % change in Vol.” value is “NS”. Besides, in test [4], the “Antihypertensive activity (Procedure B)” value was “inactive”. Also, in test [3] (10 mg/kg), 10 mg/kg produced 64% inhibition in vivo. For the same molecule, in test [3], at 30 mg/kg the inhibition in vivo was 67% and the inhibition in vivo at 100 mg/kg was found to be 87%.

For the molecule `C[n+]1ccccc1SCc1c(Cl)cccc1Cl` [Example 5, 2-(2,6-Dichlorobenzylthio)-1-methylpyridinium chloride], the “Antihypertensive activity (Procedure A)” value in test [1] (75 mg/kg orally) is on record as “showed activity”. Further, in test [2], the change in vivo at 10 mg/kg is -35% and the change in vivo at 30 mg/kg was -65%. For the same molecule, 100 mg/kg produced 70% inhibition in vivo in test [3].

Turning to `C[n+]1ccccc1SCc1ccc(Cl)cc1` [Example 3, 2-(4-Chlorobenzylthio)-1-methylpyridinium chloride], the “Antihypertensive activity (Procedure A)” value in test [1] (75 mg/kg orally) is “inactive”. Moreover, in test [2], the change in vivo at 30 mg/kg was -77%. Moreover, in test [3], the inhibition in vivo at 100 mg/kg is 83%.

Regarding `C[n+]1ccccc1SCc1ccc(Cl)c(Cl)c1` [Example 4, 2-(3,4-Dichlorobenzylthio)-1-methylpyridinium chloride], the “Antihypertensive activity (Procedure A)” value in test [1] (75 mg/kg orally) is on record as “showed activity”. In addition, in test [2], the change in vivo at 30 mg/kg is -45%. In test [3], at 100 mg/kg the inhibition in vivo was 67%.

Take `C[n+]1ccccc1SCc1cccc(C(F)(F)F)c1` [Example 37, 1-Methyl-2-((3-trifluoromethylbenzyl)thio)pyridinium chloride]: the “Antihypertensive activity (Procedure A)” value in test [1] (50 mg/kg orally) is “showed activity”. Besides, the “Anti-secretory, % change in Vol.” value in test [2] is reported as “NS”.

With `OCc1ccc[n+](-c2ccccc2)c1SCc1ccccc1` [Example 30, 2-Benzylthio-3-hydroxymethyl-1-phenylpyridinium bromide], the change in vivo at 30 mg/kg in test [2] was -42%. Moreover, the inhibition in vivo at 100 mg/kg in test [3] worked out at 71%.

`CC(C)c1ccc(CSc2cccc[n+]2C)cc1` [Example 18, 2-((-4-Isopropylbenzyl)thio)-1-methylpyridinium chloride]: the “Antihypertensive activity (Procedure A)” value in test [1] (50 mg/kg orally) is “inactive”. For the same molecule, the change in vivo at 30 mg/kg in test [2] was -39%. In test [3], the inhibition in vivo at 30 mg/kg amounted to 60% and the inhibition in vivo at 100 mg/kg came to 71%.

In the case of `C[n+]1ccccc1SCc1cccc(Cl)c1` [Example 11, 1-Methyl-2-(3-chlorobenzylthio(pyridinium chloride], in test [2], the change in vivo at 10 mg/kg is -42% and the change in vivo at 30 mg/kg is -70%. Further, the “Antihypertensive activity (Procedure B)” value in test [4] was “inactive”. In test [3], the inhibition in vivo at 100 mg/kg turned out to be 62%.

For `Cc1cccc(CSc2cccc[n+]2C)c1` [Example 25, 1-Methyl-2-((3-methylbenzyl)thio)pyridinium chloride], in test [2], the change in vivo at 30 mg/kg is -69%. In test [3], this molecule displayed an inhibition in vivo at 30 mg/kg of 75% and an inhibition in vivo at 100 mg/kg of 80%.
